Laboratory results as given in the supplement of paper PMC10307832.

Columns and labels:
Assay in all cases: relative viability (nuclei count vs DMSO), 5 days (fraction); higher = more cells survive
[1] = compound: CCn1c(-c2nonc2N)nc2c(C#CC(C)(C)O)ncc(OC[C@H]3CCCNC3)c21 + CCNC(=O)c1noc(-c2cc(C(C)C)c(O)cc2O)c1-c1ccc(CN2CCOCC2)cc1 [Luminespib] (partner 0.01 µM)
Method in brief: (§1)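 Dosing by pin tool came one day after lung cancer cell lines were seeded in 1536-well plates, using either one drug or a fixed anchor-drug dose plus five library-drug doses (not always all listed) in √10 steps. After 5 days, nuclei were counted on 4× images. Relative viability is treated-well nuclei count divided by vehicle-well nuclei count, and values are medians of duplicate plates.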

[2] = compound: CCn1c(-c2nonc2N)nc2c(C#CC(C)(C)O)ncc(OC[C@H]3CCCNC3)c21 + Cc1nc(NC(=O)N2CCC[C@H]2C(N)=O)sc1-c1ccnc(C(C)(C)C(F)(F)F)c1 [Alpelisib] (partner 2 µM)
Method in brief: as §1

[3] = compound: CCOC1=CC=CC=C1N=NC2=C(NN(C2=O)C3=NC(=CS3)C4=CC=CC=C4)C [BAM7] + N=C(N)NC(=N)NCCc1ccccc1 [Phenformin] (partner 250 µM)
Method in brief: as §1

[4] = compound: CCOC1=CC=CC=C1N=NC2=C(NN(C2=O)C3=NC(=CS3)C4=CC=CC=C4)C [BAM7] + CC1(C)CCC(c2ccc(Cl)cc2)=C(CN2CCN(c3ccc(C(=O)NS(=O)(=O)c4ccc(N[C@H](CCN5CCOCC5)CSc5ccccc5)c(S(=O)(=O)C(F)(F)F)c4)cc3)CC2)C1 [Navitoclax] (partner 0.5 µM)
Method in brief: as §1

Cell Line | relative viability ([1]; first compound 0.01 µM) | relative viability ([1]; first compound 0.03162 µM) | relative viability ([1]; first compound 0.1 µM) | relative viability ([1]; first compound 0.3162 µM) | relative viability ([1]; first compound 1 µM) | relative viability ([2]; first compound 0.01 µM) | relative viability ([2]; first compound 0.03162 µM) | relative viability ([2]; first compound 0.1 µM) | relative viability ([2]; first compound 0.3162 µM) | relative viability ([2]; first compound 1 µM) | relative viability ([3]; first compound 0.5 µM) | relative viability ([3]; first compound 5 µM) | relative viability ([3]; first compound 15.81 µM) | relative viability ([3]; first compound 50 µM) | relative viability ([4]; first compound 0.5 µM) | relative viability ([4]; first compound 5 µM) | relative viability ([4]; first compound 15.81 µM) | relative viability ([4]; first compound 50 µM)
201T | 1.04 | 1.03 | 1.02 | 1.03 | 1.03 | 0.989 | 0.992 | 0.99 | 0.978 | 1.02 | 0.465 | 0.464 | 0.474 | 0.483 | 1.18 | 1.27 | 1.12 | 1.03
A549 |  |  |  |  |  | 0.761 | 0.654 | 0.748 | 0.482 | 0.714 | 0.161 | 0.213 | 0.219 | 0.216 | 1.34 | 1.27 | 1.16 | 1.27
A-427 | 0.944 | 1.03 | 0.77 | 0.867 | 0.946 | 0.998 | 1.11 | 1.05 | 0.997 | 1.14 | 0.401 | 0.323 | 0.288 | 0.35 | 0.991 | 0.921 | 0.974 | 0.971
ABC-1 |  | 0.533 | 1.04 | 0.403 | 0.682 | 0.849 | 0.961 | 1.09 | 0.881 | 0.715 | 0.223 | 0.237 | 0.247 | 0.266 |  |  |  | 
BEN | 0.235 | 0.337 | 0.332 | 0.571 | 0.452 | 1.01 | 1.17 | 1.01 | 0.987 | 1.01 | 0.257 | 0.248 | 0.286 | 0.294 | 0.0506 | 0.068 | 0.0675 | 0.068
CAL-12T | 0.234 | 1.07 | 0.431 | 0.362 | 0.427 | 1.03 | 1.33 | 1.21 | 1.24 | 0.939 | 0.576 | 0.601 | 0.586 | 0.607 | 1.1 | 1.2 | 1.14 | 1.26
COR-L23 | 0.669 | 0.642 | 0.696 | 0.57 | 0.568 | 0.695 | 0.866 | 0.671 | 0.663 | 0.7 | 0.411 | 0.5 | 0.443 | 0.424 | 1.03 | 1.15 | 0.986 | 0.955
COR-L 105 | 0.621 | 0.868 | 0.709 | 0.775 | 0.923 | 1.05 | 0.962 | 0.871 | 0.703 | 0.808 | 0.516 | 0.503 | 0.551 | 0.534 | 0.825 | 0.664 | 0.784 | 0.826
Calu-6 |  |  |  |  |  | 0.92 | 1.08 | 1.02 | 0.963 | 1.14 |  |  |  |  | 0.911 | 0.919 | 0.906 | 0.824
ChaGo-K-1 | 0.564 | 0.588 | 0.655 | 0.535 | 0.505 |  |  |  |  |  | 0.425 | 0.351 | 0.393 | 0.394 | 0.882 | 1.18 | 1.11 | 1.08
EBC-1 |  |  |  |  |  | 0.822 | 0.973 | 0.763 | 0.62 | 0.628 |  |  |  |  | 0.403 | 0.389 | 0.382 | 0.423
EKVX | 0.788 | 0.887 | 0.867 | 0.878 | 0.911 | 0.937 | 0.943 | 0.862 | 0.842 | 0.919 | 0.241 | 0.235 | 0.198 | 0.231 | 1.13 | 0.982 | 0.71 | 1.01
EMC-BAC-2 | 1.18 | 1.17 | 1.23 | 1.18 | 1.21 | 0.756 | 0.73 | 0.7 | 0.759 | 0.784 | 0.567 | 0.533 | 0.535 | 0.61 | 1.2 | 1.23 | 1.08 | 1.17
EPLC-272H | 0.228 | 0.141 | 0.311 | 0.262 | 0.309 | 0.962 | 1.02 | 0.989 | 0.858 | 0.956 | 0.291 |  | 0.322 | 0.281 | 1.32 | 1.21 | 1.15 | 1.17
H3255 | 0.84 | 0.754 | 0.838 | 0.771 | 0.958 | 0.659 | 0.705 | 0.692 | 0.562 | 0.607 | 0.353 | 0.343 | 0.386 | 0.384 | 0.473 | 0.51 | 0.525 | 0.577
HARA | 0.942 | 0.222 | 0.666 | 0.585 | 0.603 | 0.843 | 0.884 | 0.824 | 0.781 | 0.861 | 0.425 | 0.51 | 0.431 | 0.428 | 1.19 | 1.19 | 1.08 | 1.16
HCC-15 | 0.291 | 0.26 | 0.468 | 0.345 | 0.268 | 0.868 | 0.945 | 0.86 | 0.832 | 0.946 | 0.506 | 0.434 | 0.496 | 0.471 | 0.751 | 0.768 | 0.683 | 0.707
HCC-44 |  |  | 0.994 | 0.906 | 1.21 | 0.732 | 0.818 | 0.794 | 0.761 | 0.786 | 0.351 | 0.252 | 0.172 | 0.273 | 1.02 | 1.02 | 0.959 | 1.01
HCC-78 |  |  |  |  |  | 0.306 | 0.372 | 0.351 | 0.307 | 0.356 | 0.619 | 0.583 | 0.796 | 0.777 | 0.901 | 0.69 | 0.658 | 0.796
HCC-366 |  |  |  |  |  | 0.362 | 0.427 | 0.293 | 0.475 | 0.386 | 0.576 | 0.605 | 0.668 | 0.594 | 1.11 | 0.981 | 0.964 | 0.957
